Results as given in US20210061929A1, “ACTIVE-ENERGY-RAY-CURABLE COMPOSITION, ACTIVE-ENERGY-RAY-CURABLE INK, COMPOSITION STORED CONTAINER, TWO-DIMENSIONAL OR THREE-DIMENSIONAL IMAGE FORMING METHOD AND APPARATUS, CURED PRODUCT, AND DECORATED PRODUCT” (priority 2019, published 2021).

Columns and labels:
[1] = Skin sensitization test by local lymph node assay (LLNA), SI value of the materials; type: in vivo; settings: for SI (skin sensitization SI value): material as such, local lymph node assay (LLNA) method
Experimental: The amine value of the dispersant polymer, a skin sensitization SI value indicating a skin sensitizing potential, and the colony count by Ames test indicating carcinogenicity were obtained in the manners described below.
The SI value was measured by a skin sensitization test according to a local lymph node assay (LLNA) method.
Oral toxicity was tested according to OECD test guideline TG423. […] Skin sensitizing potential was tested according to OECD test guideline TG442B.

[2] = type: cell-based; settings: OECD test guideline TG471 (±S9 mix)
Experimental: (§1) As a safety test, AMES test was performed according to OECD test guideline TG471 (±S9 mix), and the result was negative. Oral toxicity was tested according to OECD test guideline TG423. […] Skin stimulation was tested according to OECD test guideline TG404, and the result was PII=0.5. Skin sensitizing potential was tested according to OECD test guideline TG442B.

[3] = Oral toxicity according to OECD test guideline TG423; type: in vivo
Experimental: as §1

[4] = type: in vivo; settings: OECD test guideline TG404
Experimental: as §1

C=C(C)C(=O)OCCO [Example A3-1, 2-hydroxyethyl methacrylate]
SI (skin sensitization SI value) [1]: Tokyo Chemical Industry Co., Ltd. “2-hydroxyethyl methacrylate” SI = 1.26

Isobornyl acrylate [Example A3-2]
SI (skin sensitization SI value) [1]: Osaka Organic Chemical Industry Ltd. “Isobomyl acrylate” SI = 8.30
SI (skin sensitization SI value) ([1]; listed as IBXA): 8.30

C=C(C)C(=O)OCCOCCOC(=O)C(=C)C [Example A2-1]
SI (skin sensitization SI value) [1]: Shin- Nakamura Chemical Co., Ltd. “2G” SI = 1.05 Ltd.

C=CC(=O)OCC(CC)(COC(=O)C=C)COC(=O)C=C [Example A4-1]
SI (skin sensitization SI value) [1]: Toagosei Co., Ltd. “M-3547” SI = 3.42

C=CC(=O)N(C)CC(=O)OCC [Example A1-2, N-acryloyl-N-methylglycineethyl ester]
SI (skin sensitization SI value) [1]: (see Synthesis example 2) SI = 1.02

C=CC(=O)N(C)C(C)C(=O)OC (stereo not shown) [Example A1-3, N-acryloyl-N-methylalaninemethyl ester]
SI (skin sensitization SI value) [1]: (see Synthesis example 3) SI = 1.12

C=CC(=O)N(C)CC(=O)OC [Example A1-1, N-acryloyl-N-methylglycinemethyl ester]
SI value (skin sensitizing potential) ([1]; OECD test guideline TG442B): 1.00
Influence on the health of human bodies (conclusion of the safety tests) ([1]; in vivo, po): significantly uninfluential on the health of human bodies
SI (skin sensitization SI value) [1]: (see Synthesis example 1) SI = 1.00
AMES test result [2]: negative
LD50 ([3]; in vivo, po, 2000 mg/kg): ≥ 2000 mg/kg
Fatal cases (oral toxicity) ([3]; six cases): none of six cases was a fatal case
PII (skin stimulation) [4]: 0.5

C=C(C)C(=O)OCC(COC(=O)C(=C)C)OC(C)=O [Example A2-6, 2-acetyl-1,3-glycerol dimethacrylate]
SI (skin sensitization SI value) [1]: (see Synthesis example 5) SI = 1.40

C=C(C)C(=O)OCC(CC)(COC(=O)C(=C)C)COC(=O)C(=C)C [Example A2-3]
SI (skin sensitization SI value) [1]: Shin- Nakamura Chemical Co., Ltd. “TMPT” SI = 1.03
